Values joined by “and” are separate entries in the source; they are usually repeats but may differ in a detail not shown here. Equal values may be shown once.
Key:
[1] = system: HeLa cells; assay: Cellular ATP levels, luciferase‐based assay (CellTiter‐Glo); type: cell-based, human; settings: 3 h, percentage of control, mean ± SE (n = 3) (Fig. 4F)
Description: Cellular ATP levels were estimated using a luciferase‐based assay (CellTiter‐Glo; Promega). […] ATP levels were assayed according to the manufacturer's protocol, and luminescence was recorded using an Infinite M1000 plate reader (Tecan, Männedorf, Switzerland).

[2] = system: A549 cell xenograft; assay: Subcutaneous xenograft mouse model, tumor growth; type: in vivo; settings: A549 s.c. xenograft, nude mice; intratumoral 40 or 60 μM, 20 μL per tumor every two days; 20 days; vs HBSS control; n = 5
Description: (§1) U‐87MG cells (3 × 10^6/mouse), A549 cells (5 × 10^6/mouse), or MDA‐MB‐231 cells (3 × 10^6/mouse) were inoculated subcutaneously (s.c.) into the hind leg flanks of athymic 8‐week‐old male nude mice (Envigo, Huntingdon, UK). Tumor size was measured using a digital caliper and volume was calculated, and when reached 50–100 mm^3 for each tumor type, mice were randomly divided into two groups (five mice per group). […] The xenografts were injected (two points, 20 μL per tumor) every two days. Beginning on the day of inoculation, mouse weight and tumor volume were monitored twice a week. Experiments were terminated after 14, 29, or 20 days for U‐87MG‐, MDA‐MB‐231‐, or A549‐based tumors, respectively. The mice were sacrificed and tumors were excised. Half of each tumor was fixed in 4% buffered formaldehyde, paraffin‐embedded, and processed for IHC, while the second half was frozen in liquid nitrogen for immunoblotting and qPCR analyses. These experimental protocols were approved by the Institutional Animal Care and Use Committee of Ben‐Gurion University.

[3] = system: MDA‐MB‐231 cell xenograft; assay: Subcutaneous xenograft mouse model, tumor growth; type: in vivo; settings: MDA‐MB‐231 s.c. xenograft, nude mice; intratumoral 40 or 60 μM, 20 μL per tumor every two days; 29 days; vs HBSS control; n = 5
Description: as §1

[4] = system: U‐87MG cell xenograft; assay: Subcutaneous xenograft mouse model, tumor growth; type: in vivo; settings: U‐87MG s.c. xenograft, nude mice; intratumoral 40 or 60 μM, 20 μL per tumor every two days; 14 days; vs HBSS control; n = 5
Description: as §1

[5] = system: HeLa cells (HK‐I in cytosolic fraction); assay: Mitochondria‐bound HK detachment, cell fractionation and immunoblotting; type: cell-based, human; settings: peptide 3, 5, 10 μM, 3 h, digitonin […], immunoblot (Fig. 4E)
Description: Peptide‐induced HK detachment from mitochondria to the cytosol was also analyzed by immunoblotting. […] Samples were centrifuged at 12 000 g at 4 °C for 10 min, and the obtained supernatants (cytosolic fraction) and pellets (mitochondria) were analyzed by immunoblotting using anti‐HK‐I, anti‐VDAC1, and anti‐GAPDH antibodies, and then with secondary HRP‐conjugated antibodies.

[6] = system: A549 cells; assay: Apoptosis, acridine orange/ethidium bromide staining; type: cell-based, human; settings: A549, 3 h; quantitation, mean ± SE (n = 3) (Fig. 5E)
Description: (§2) For PI and annexin V–FITC staining, A549 or MDA‐MB‐231 cells, untreated or treated with VDAC1‐based peptides, were collected (1500 g for 5 min), washed, and resuspended in 200 μL binding buffer (10 mM HEPES/NaOH (pH 7.4), 140 mM NaCl, and 2.5 mM CaCl2). Annexin V–FITC staining was performed according to the recommended protocol. Cells were then washed once with binding buffer and resuspended in 200 μL binding buffer, to which PI was added immediately before flow cytometric analysis. At least 10 000 events were collected, recorded on a dot plot, and analyzed by flow cytometer. Acridine orange/ethidium bromide staining was carried as described previously (Zaid et al., 2005), with cells visualized by fluorescence microscopy (Olympus LX2‐KSP, Tokyo, Japan), and images were captured with a CCD camera. About 200 cells were counted for each experiment.

[7] = system: A549‐, MDA‐MB‐231‐, and U‐87MG‐derived tumors; assay: qPCR of excised xenograft tumors; type: in vivo, mouse
Description: as §1
Total RNA was isolated from untreated and peptide‐treated tumors (three mice each) using an RNeasy Mini Kit (Qiagen, Hilden, Germany) according to the manufacturer's instructions. Total RNA quality was analyzed using the Agilent RNA 6000 Nano Kit. […] The levels of target genes were normalized relative to β‐actin mRNA levels. Samples were amplified by a 7300 Real‐Time PCR System (Applied Biosystems) for denaturation step of 5 min at 95 °C and 40 cycles using the following PCR parameters: 95 °C for 15 s, 60 °C for 1 min, and 72 °C for 1 min. The copy numbers for each sample were calculated by the CT‐based calibrated standard curve method. The mean fold changes (±SE) of three replicates were calculated.

[8] = system: A549, MDA‐MB‐231 and U‐87MG xenografts; assay: TUNEL assay on xenograft tumor sections; type: in vivo, mouse; settings: TUNEL staining of paraffin sections; no TUNEL‐positive cells in control HBSS‐TTs (Fig. 7A–C)
Description: as §1
Paraffin‐embedded‐fixed tumor sections were processed for a TUNEL assay using the DeadEnd Fluorometric TUNEL system according to the manufacturer's instructions. […]

[9] = system: A549 cells; assay: Apoptosis, annexin V–FITC/PI staining and flow cytometry; type: cell-based, human; settings: A549, 3 h, serum‐free, 37 °C (Figs 5F,G; also MDA‐MB‐231, Fig. S2B,C)
Description: as §2

[10] = treated tumors vs control, n = 3 (Fig. 7D,E)

CC[C@H](C)[C@H](NC(=O)[C@H](Cc1ccc(O)cc1)NC(=O)[C@@H]1CCCN1C(=O)[C@H](CCCNC(=N)N)NC(=O)[C@H](Cc1c[nH]cn1)NC(=O)[C@@H](CO)NC(=O)[C@@H](Cc1c[nH]c2ccccc12)NC(=O)[C@H](NC(=O)[C@@H](Cc1c[nH]c2ccccc12)NC(=O)[C@@H](CCC(=O)O)NC(=O)[C@@H](CCCCN)NC(=O)[C@@H](CCCCN)NC(=O)[C@@H](CC(C)C)NC(=O)[C@@H](CCC(=O)O)NC(=O)[C@H](NC(=O)[C@@H](C)NC(=O)[C@H](NC(=O)[C@@H](CC(N)=O)NC(=O)[C@@H](CC(C)C)NC(=O)[C@@H](C)NC(=O)[C@@H](Cc1c[nH]c2ccccc12)NC(=O)[C@H](NC(=O)[C@@H](C)NC(=O)CNC(=O)[C@@H](CC(N)=O)NC(=O)[C@@H](CO)NC(=O)[C@@H](CC(N)=O)NC(=O)[C@@H](CCCCN)NC(=O)[C@@H](Cc1c[nH]c2ccccc12)NC(=O)[C@H](NC(=O)[C@@H](Cc1c[nH]c2ccccc12)NC(=O)[C@H](N)CCCCN)[C@H](C)O)[C@H](C)O)C(C)C)[C@H](C)O)[C@H](C)O)C(=O)N[C@@H](C)C(=O)N[C@@H](Cc1c[nH]cn1)C(=O)O [R‐Tf‐D‐LP4]
decrease of cellular ATP levels [1]: about 40% | decrease in tumor volume [2]: ~ 80% and 70–80% | decrease in tumor volume [3]: ~ 80% and 70–80% | decrease in tumor volume [4]: ~ 80% and 70–80% | increase in HK in the cytosolic fraction [5]: about twofold | apoptotic cell death (acridine orange/ethidium bromide) [6]: over 70% | decrease in expression of Glut‐1, HK‐I and GAPDH ([7]; A549, MDA‐MB‐231, U‐87MG tumors vs control (Fig. 8)): three‐ to fourfold | p53 expression levels, elevation ([7]; A549‐, MDA‐MB‐231‐, U‐87MG‐derived tumors, n = 3 (Fig. 7D–F)): over two‐ to fivefold | Caspase‐8 overexpression [7, 10]: two‐ to threefold | SMAC/Diablo expression levels, increase [7, 10]: two‐ to fivefold | caspase‐3 overexpression [7, 10]: two‐ to threefold | Cyto c expression, increase ([7]; treated tumors vs control, n = 3 (Fig. 7D,F)): two‐ to fourfold | TUNEL‐positive cells in treated tumors [8]: the majority of the cells were TUNEL‐positive | apoptotic cell death (annexin V–FITC and PI staining) [9]: over 90%

— PMC6026870, “Selective induction of cancer cell death by VDAC1‐based peptides and their potential use in cancer therapy” (Molecular Oncology, 2018)
